This note sets out measurements from patent US20040235801A1, “Therapy for stroke” (priority 2001, published 2004).

This test deals with C57BL/6 mice. Nature of the test: Size of infarction after 90 minutes MCA occlusion (tetrazolium red). The test is classed as in vivo, mouse. The conditions noted are these: 24 hours after 90 min MCAO; treatment 2.5 hours after MCAO, i.p.; % of contralateral side.

Experimental: Adult (3-5 months old) male C57BL/6 mice were obtained from Charles River Inc. (Saint-Constant, Quebec, Canada). All experimental procedures were approved by the MUHC animal care committee according to the guidelines of the Canadian Council for Animal Care. All animals were allowed free access to water before and after surgery.
Unilateral focal cerebral ischemia was induced by occlusion of the medial cerebral artery (MCA) in the left cerebral hemisphere during 1.5 hours. The MCA occlusions in mice is carried out on ˜30 C57BI/6 mice weighing 20-25 g from an adaptation of a method previously described in rats (Beaulieu, J. M., Kriz, J. and Julien, J. P. ,2002, Brain.Res. 946, 153-161). The animals were anesthetized by administration of ketamine/xylazine mg/kg i.m. To avoid hypothermia, the mouse body temperature was maintained at 37° C. with an infrared heating lamp and warm pad. […]
The area of infarct was estimated in the minimum of animals (5-7 mice) from each experimental group. […] The area of infarct was estimated according to the tetrazolium red staining, calculated in arbitrary units pixels and expressed as a percentage of a total control area, the contralateral non-stroked side of the brain. […] The infarct volume was calculated by summing up the infarct area in multiple slices. […]

Take `CN(C)c1ccc(O)c2c1C[C@H]1C[C@H]3[C@H](N(C)C)C(O)=C(C(N)=O)C(=O)[C@@]3(O)C(O)=C1C2=O` [Minocycline, minocycline]: the “% of ischemic area” value came out at 38.4%.
